From US20220195360A1, “Additive Manufacturing of Functional Myocardial Tissue” (The United States of America, as represented by the …, priority 2017, published 2022)
Read-outs that look alike come from different tables or passages of the source.

Tests used:
Assay type in all cases: cell-based
[1] = test system: neonatal rat cardiomyocytes; conditions: 6 day
Procedure: For testing of the systems and methods according to several embodiments, neonatal rat cardiomyocytes were seeded following the formation of a layer of confluent endothelium at the peripheries the microfibers of the scaffolds, which generally occurred in 15 days. Freshly isolated cardiomyocytes were suspended in DMEM at a final concentration of 1×10^6 cells m/L. The scaffolds were individually placed on top of a thin layer of hydrophobic polydimethylsiloxane (PDMS). Approximately 40 μL of cell suspension was dropped to cover each scaffold, and incubated at 37° C. for 2 hours, to allow the cardiomyocytes to adhere onto the microfibers. […]
Live/Dead staining was performed according to the manufacturer's instructions (THERMO FISHER®). Beating of the cardiomyocytes was observed using an optical microscope and analyzed using custom-coded MATLAB programs, as known in the prior art. […] The levels of secreted vWF were measured by an ELISA kit (ab189571) by ABCAM®. […]
(§1) For example, the endothelialized-myocardium-on-a-chip model can be used to assess treatment by a common anti-cancer drug, doxorubicin. Unlike other pre-existing models, where only individual cell types were typically included, doxorubicin elicited dose-dependent responses towards both cardiomyocytes and endothelial cells when assessed using the systems and methods of several embodiments.

[2] = test system: endothelial cells (HUVECs); conditions: human, 6 day
Procedure: (§2) Both bioink 26 and CaCl2) solutions can be maintained at 37° C. before use. HUVECs can be re-suspended in the bioink at a concentration of 1×10^7 cells/mL. Following the bioprinting and the subsequent crosslinking processes, the constructs can be washed with PBS to remove excess CaCl2). After washing, the constructs can be cultured in endothelial cell growth medium (EGM) at 37° C. and 5% CO2 volume throughout a period of up to 33 days. The EGM/CO2 medium can be changed twice in the first day and then every 2 days thereafter.
(§3) Live/Dead staining was performed according to the manufacturer's instructions (THERMO FISHER®). Beating of the cardiomyocytes was observed using an optical microscope and analyzed using custom-coded MATLAB programs, as known in the prior art. Monitoring of the beating behavior was performed every day until contractions were no longer observed. […] The levels of secreted vWF were measured by an ELISA kit (ab189571) by ABCAM®.
as §1

[3] = test system: hiPSC-cardiomyocytes; conditions: human
Procedure: The seeding of hiPSC-cardiomyocytes can follow the same procedure that is described above for neonatal rat cardiomyocytes, except that a Roswell Park Memorial Institute (RPMI)-1640 medium containing 1×B27 supplements (by GIBCO®) can be used for culturing. Other choices in the prior art that are known for culturing cardiomyocytes might also be possible.
as §3
(§4) The same procedures for fabricating the vascular beds using bioprinted microfibrous scaffolds as described above were used, but hiPSC-cardiomyocytes were subsequently seeded instead of the neonatal rat cells. […] The human-derived myocardial organoids seemed to have slightly lower endurance at all of the time points analyzed in comparison to those of rat origin (FIG. 8C versus FIG. 7C). […]

[4] = test system: endothelial cells (HUVECs); test: vWF expression by the endothelial component of the endothelialized-human-myocardium-on-a-chip; conditions: different doses, human model (FIG. 8D) compared with rat model (FIG. 7D)
Procedure: as §2, §3, §4

Structure (SMILES): COc1cccc2c1C(=O)c1c(O)c3c(c(O)c1C2=O)C[C@@](O)(C(=O)CO)C[C@@H]3O[C@H]1C[C@H](N)[C@H](O)[C@H](C)O1 [doxorubicin]
- relative beating rate of the cardiomyocytes ([1]; 10 μM): 70.5%
- relative beating rate of the cardiomyocytes ([1]; 100 μM): 1.62%
- levels of von Willebrand factor (vWF) secreted by the endothelial cells ([2]; 10 μM): 76.0%
- levels of von Willebrand factor (vWF) secreted by the endothelial cells ([2]; 100 μM): 35.3%
- relative beating of the hiPSC-cardiomyocytes ([3]; 10 μM): 66.0%
- relative beating of the hiPSC-cardiomyocytes ([3]; 100 μM): 2.78%
- toxicity on the endothelial component of the constructs (vWF expression) [4]: corresponded well with that observed for the rat myocardial organoids
